Source: patent US10426850B2, “Collagen mimetic peptides for targeting collagen strands for in vitro and in vivo imaging and therapeutic use” (The Johns Hopkins University, priority 2011, dated 2019)

Experiments:
[1] = target: T1, thermally-denatured collagen (gelatin) films (Rattus norvegicus, UniProt P02454+P02466); assay: Photo-triggered CMP binding assay on gelatin films
T1 construct: To make gelatin films, the same collagen solution was denatured at 70° C. for 15 minutes; purchased BD Science; host or cells: rat tail
T1 sequence (P02454 152-1207 limits assumed): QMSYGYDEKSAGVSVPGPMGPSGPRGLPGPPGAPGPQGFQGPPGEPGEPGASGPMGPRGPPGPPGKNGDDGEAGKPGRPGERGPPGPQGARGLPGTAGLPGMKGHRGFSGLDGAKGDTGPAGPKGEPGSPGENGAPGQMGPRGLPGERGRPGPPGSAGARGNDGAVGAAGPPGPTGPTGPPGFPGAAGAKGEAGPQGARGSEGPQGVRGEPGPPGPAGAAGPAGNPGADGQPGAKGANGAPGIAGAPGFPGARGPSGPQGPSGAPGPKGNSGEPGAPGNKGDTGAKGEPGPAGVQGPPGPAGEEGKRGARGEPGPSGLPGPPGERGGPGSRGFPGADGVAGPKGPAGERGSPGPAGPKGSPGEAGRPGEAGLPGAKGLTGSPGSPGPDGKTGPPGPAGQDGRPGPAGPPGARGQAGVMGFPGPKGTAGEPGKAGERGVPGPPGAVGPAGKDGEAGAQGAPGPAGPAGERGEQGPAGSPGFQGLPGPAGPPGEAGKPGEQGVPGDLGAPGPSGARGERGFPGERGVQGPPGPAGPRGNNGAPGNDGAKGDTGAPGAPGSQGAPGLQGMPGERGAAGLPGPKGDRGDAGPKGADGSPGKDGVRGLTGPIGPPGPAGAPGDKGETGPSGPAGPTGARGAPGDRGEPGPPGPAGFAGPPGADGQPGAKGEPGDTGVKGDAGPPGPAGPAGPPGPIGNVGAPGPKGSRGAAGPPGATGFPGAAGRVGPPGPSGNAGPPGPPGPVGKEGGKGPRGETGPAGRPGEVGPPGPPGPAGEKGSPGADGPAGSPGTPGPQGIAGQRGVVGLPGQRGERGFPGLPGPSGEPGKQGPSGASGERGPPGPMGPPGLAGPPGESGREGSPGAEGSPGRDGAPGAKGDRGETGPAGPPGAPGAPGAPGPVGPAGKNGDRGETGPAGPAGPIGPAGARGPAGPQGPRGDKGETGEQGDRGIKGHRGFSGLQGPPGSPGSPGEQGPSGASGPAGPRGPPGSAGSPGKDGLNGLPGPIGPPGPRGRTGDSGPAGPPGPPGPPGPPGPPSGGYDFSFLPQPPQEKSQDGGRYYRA
T1 sequence (P02466 86-1125 limits assumed): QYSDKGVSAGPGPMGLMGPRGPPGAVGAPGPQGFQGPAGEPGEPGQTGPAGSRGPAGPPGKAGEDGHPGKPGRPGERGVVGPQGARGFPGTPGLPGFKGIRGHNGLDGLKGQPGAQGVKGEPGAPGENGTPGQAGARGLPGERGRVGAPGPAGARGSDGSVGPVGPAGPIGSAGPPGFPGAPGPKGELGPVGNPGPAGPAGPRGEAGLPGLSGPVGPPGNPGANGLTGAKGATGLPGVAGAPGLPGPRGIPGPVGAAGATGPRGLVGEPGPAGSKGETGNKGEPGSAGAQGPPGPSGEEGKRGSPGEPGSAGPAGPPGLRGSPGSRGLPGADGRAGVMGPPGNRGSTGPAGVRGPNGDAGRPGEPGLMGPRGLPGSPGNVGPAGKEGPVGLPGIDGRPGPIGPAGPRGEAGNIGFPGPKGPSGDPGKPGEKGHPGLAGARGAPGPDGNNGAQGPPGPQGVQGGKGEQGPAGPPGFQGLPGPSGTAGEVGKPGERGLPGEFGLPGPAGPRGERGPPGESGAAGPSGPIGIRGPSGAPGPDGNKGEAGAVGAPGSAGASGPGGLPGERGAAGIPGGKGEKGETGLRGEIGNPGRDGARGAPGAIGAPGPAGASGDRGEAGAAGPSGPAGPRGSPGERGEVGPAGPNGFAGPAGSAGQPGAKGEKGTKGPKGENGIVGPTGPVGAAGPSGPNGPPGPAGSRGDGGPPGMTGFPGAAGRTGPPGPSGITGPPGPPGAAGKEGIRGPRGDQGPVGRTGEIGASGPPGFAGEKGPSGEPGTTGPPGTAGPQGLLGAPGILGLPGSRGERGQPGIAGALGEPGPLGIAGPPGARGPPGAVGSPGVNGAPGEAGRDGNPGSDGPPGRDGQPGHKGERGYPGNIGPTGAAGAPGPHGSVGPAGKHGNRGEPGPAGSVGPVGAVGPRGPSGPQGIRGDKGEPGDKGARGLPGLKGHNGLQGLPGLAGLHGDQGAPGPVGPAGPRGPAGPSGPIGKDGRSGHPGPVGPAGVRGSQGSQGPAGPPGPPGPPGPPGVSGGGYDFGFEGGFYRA
Procedure: Collagen/gelatin binding assays. Collagen solution (200 μL, 3.71 mg/mL, type I rat tail, BD Science) in 0.02 N acetic acid was added to each well of a 96-well black/clear-bottom plate (Costar) and air-dried. To make gelatin films, the same collagen solution was denatured at 70° C. for 15 minutes before applying to the well. The dried films were neutralized and washed with 1×PBS buffer (pH 7.4) and deionized water. PBS solution of carboxyfluorescein-labeled caged CMP (40 μL, 50 μM, unless indicated otherwise) pre-equilibrated at 4° C. was added onto each reconstituted collagen or gelatin film and exposed to 365 nm UV light (10 mW/cm^2, from mercury arc lamp) for 11 minutes on ice. Wells for the UV-negative control groups were covered with aluminum foil to block UV exposure. After incubation at 4° C. for over 3 hours (unless indicated otherwise), the unbound materials were removed by rinsing with PBS buffer and deionized water. The films were allowed to dry in dark, after which the fluorescence (ex: 489 nm, em: 533 nm) was measured with a SpectraMax Gemini XPS microplate reader (Molecular Devices). Each binding experiment was done in triplicate.

[2] = target: T2, MMP-1 digested type I collagen (Rattus norvegicus, UniProt P02454+P02466); assay: Staining of SDS-PAGE gels using photo-decaged CMP; type: binding; details: 6 μM, UV-activation
T2 construct: purchased BD Science (collagen); EMD Millipore (ProMMP-1); host or cells: rat tail; digested in house
T2 sequence (P02454 152-942 limits assumed): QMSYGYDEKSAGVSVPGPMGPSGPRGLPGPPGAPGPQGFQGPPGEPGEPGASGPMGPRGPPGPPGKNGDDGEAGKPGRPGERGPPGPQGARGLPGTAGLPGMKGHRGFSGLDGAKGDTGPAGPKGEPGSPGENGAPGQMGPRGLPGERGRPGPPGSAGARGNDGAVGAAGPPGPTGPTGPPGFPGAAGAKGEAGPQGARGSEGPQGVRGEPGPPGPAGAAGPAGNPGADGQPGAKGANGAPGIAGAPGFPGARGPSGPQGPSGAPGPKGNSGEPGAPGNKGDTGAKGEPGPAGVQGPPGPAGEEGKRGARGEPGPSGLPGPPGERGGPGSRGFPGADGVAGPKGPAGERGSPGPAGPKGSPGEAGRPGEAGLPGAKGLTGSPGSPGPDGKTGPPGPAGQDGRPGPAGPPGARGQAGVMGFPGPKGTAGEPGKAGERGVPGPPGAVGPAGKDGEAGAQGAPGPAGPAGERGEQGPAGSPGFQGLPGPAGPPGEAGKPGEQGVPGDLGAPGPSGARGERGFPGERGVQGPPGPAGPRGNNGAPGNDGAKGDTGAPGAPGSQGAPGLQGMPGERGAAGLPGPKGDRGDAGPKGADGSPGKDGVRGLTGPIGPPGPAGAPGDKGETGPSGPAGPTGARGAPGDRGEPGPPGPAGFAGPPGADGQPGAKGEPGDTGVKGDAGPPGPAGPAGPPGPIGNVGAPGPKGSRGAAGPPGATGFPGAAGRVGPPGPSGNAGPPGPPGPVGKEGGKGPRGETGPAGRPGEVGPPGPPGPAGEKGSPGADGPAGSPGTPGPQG
T2 sequence (P02454 943-1207 limits assumed): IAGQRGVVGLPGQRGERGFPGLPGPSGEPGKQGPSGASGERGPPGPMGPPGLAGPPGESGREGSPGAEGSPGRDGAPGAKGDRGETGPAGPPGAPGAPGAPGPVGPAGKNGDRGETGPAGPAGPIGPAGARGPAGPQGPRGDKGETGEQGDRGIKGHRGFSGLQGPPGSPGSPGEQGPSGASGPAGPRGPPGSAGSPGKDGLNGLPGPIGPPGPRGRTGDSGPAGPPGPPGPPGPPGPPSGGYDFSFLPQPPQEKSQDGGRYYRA
T2 sequence (P02466 86-871 limits assumed): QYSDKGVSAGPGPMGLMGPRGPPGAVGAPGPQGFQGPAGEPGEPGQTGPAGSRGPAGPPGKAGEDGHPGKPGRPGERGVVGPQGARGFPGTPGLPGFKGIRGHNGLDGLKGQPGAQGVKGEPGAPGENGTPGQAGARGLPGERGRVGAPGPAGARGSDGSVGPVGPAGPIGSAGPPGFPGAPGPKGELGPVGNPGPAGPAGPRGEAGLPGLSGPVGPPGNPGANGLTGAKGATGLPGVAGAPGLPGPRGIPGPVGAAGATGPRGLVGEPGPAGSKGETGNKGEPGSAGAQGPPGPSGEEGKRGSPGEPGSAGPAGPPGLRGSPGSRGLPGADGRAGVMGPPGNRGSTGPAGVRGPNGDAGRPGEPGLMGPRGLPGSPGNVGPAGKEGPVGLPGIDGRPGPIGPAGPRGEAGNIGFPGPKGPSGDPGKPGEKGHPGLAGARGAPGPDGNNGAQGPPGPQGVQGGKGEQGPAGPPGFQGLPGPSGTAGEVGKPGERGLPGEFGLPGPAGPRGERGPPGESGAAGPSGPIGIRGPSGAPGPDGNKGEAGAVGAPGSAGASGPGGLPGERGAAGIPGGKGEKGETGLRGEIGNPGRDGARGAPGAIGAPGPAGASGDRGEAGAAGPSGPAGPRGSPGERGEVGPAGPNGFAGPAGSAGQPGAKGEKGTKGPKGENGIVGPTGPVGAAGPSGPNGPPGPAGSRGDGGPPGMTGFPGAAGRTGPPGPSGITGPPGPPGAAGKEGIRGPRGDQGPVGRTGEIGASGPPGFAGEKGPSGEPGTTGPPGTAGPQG
T2 sequence (P02466 872-1125 limits assumed): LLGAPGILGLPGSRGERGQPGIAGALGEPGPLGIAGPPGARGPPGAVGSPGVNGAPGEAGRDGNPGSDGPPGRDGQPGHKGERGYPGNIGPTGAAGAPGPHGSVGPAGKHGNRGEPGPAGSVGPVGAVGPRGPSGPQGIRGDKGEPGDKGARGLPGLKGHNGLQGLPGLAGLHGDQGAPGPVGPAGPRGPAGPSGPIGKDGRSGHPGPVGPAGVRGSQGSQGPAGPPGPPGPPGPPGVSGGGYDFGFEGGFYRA
Procedure: Staining of SDS-PAGE gels using photo-decaged CF(GPO)9 (SEQ ID NO: 10). MMP-1 digested type I collagen (3.5 μg) was separated by SDS-PAGE (4-12% polyacrylamide gel) under non-reducing condition, along with unstained protein ladder (Life technologies, LC5801). After washing, the gel was soaked in 6 μM CF^NB(GPO)9 (SEQ ID NO: 4) (or CF^SG9P9O9 (SEQ ID NO: 5)) in 1×PBS solution, followed by exposure to 365 nm UV light for 15 min, and 2.5 hr of staining. The gel was washed with deionized water and scanned using Typhoon 9410 Imager (GE Healthcare) with 488 nm fluorescence channel. Afterwards, the protein gel was stained by coomassie brilliant blue and imaged by Gel Doc EQ system (BioRad).

intact type I collagen = target: T3, intact type I collagen (Rattus norvegicus, UniProt P02454+P02466); assay: Photo-triggered CMP binding assay on intact non-fibrillar collagen; details: intact collagens, before and after 37° C. incubation; UV-activated
T3 construct: type I rat tail, BD Science; purchased BD Science; host or cells: rat tail
T3 sequence (P02454 152-1207 limits assumed): as the sequence (P02454 152-1207 limits assumed) above
T3 sequence (P02466 86-1125 limits assumed): as the sequence (P02466 86-1125 limits assumed) above
Procedure: MMP-1 digestion of type I collagen and CMP binding assays. ProMMP-1 (1 μg, EMD Millipore) was activated by p-aminophenylmercuric acetate (1.1 mM) in 132.5 μL of TNC buffer (50 mM Tris-HCl, 0.15 M NaCl, 5 mM CaCl2, 0.02% NaN3, pH 7.5) at 37° C. for 3 hr. Type I collagen (62.6 μg) was subsequently added to the MMP-1 solution and incubated at room temperature for at least 3 days. Digested products were analyzed by SDS-PAGE and circular dichroism spectroscopy (FIG. 12). Wells of nunc black 96-well maxisorp plate were charged with 50 μL of TNC buffer containing 0.5 M glycerol, and 100 μg/mL collagen or MMP-1 cleaved collagen, and incubated at room temperature. The collagen solutions used were either kept at room temperature (22° C.) or incubated at 37° C. for 1 minute just prior to coating. […] Wells were washed extensively with PBSB followed by fluorescence (ex: 489 nm, em: 533 nm) reading with a SpectraMax M-2 microplate reader (Molecular Devices). […] The background fluorescence of empty wells was subtracted from the raw fluorescence data. For estimating the amount of adsorbed protein, un-blocked collagen-coated wells were treated with 100 μM 5-(4,6-dichlorotriazinyl)aminofluorescein (DTAF, 50 μL, in 0.1 M sodium borate buffer) at room temperature for 3 hours, and the fluorescence (ex: 489 nm, em: 533 nm) of the well was measured after washing with 1×PBS. […]

## CF-GGG-(GPO)4^NBGPO(GPO)4 [CF^NB(GPO)9]
[1]; caged, UV−
  binding (fluorescence intensity of film): negligible
[1]; photo-activated (UV+)
  level of binding on gelatin relative to collagen: an order of magnitude higher
[2]
  staining of MMP-1 digested collagen bands: able to stain the MMP-1 digested collagen bands
  staining of protein ladder bands: No other bands from the protein ladder were stained
Intact type I collagen
  level of CMP binding: similarly low
